Where two headings read alike, the source gives them in different places. Each block holds one molecule with its values, some of them ahead of it.
Tests used:
[1] = target: T1, human GIP receptor (human) (UniProt P48546); assay: cell-based or functional assay
T1 sequence (looked up): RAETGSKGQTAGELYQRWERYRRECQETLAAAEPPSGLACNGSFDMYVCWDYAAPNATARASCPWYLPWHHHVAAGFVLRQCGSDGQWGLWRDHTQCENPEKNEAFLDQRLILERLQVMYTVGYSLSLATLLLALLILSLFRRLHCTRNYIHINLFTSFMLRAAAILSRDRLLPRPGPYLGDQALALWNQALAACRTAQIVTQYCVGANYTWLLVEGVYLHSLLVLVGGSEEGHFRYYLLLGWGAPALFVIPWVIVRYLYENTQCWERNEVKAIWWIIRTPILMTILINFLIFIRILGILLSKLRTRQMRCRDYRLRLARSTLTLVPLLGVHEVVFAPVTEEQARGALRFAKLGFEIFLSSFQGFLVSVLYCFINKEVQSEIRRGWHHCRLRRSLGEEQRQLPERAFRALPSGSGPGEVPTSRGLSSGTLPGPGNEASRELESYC

hGCGR = target: T2, hGCGR (Homo sapiens, UniProt P47871); assay: Functional cAMP formation (HTRF) in HEK-293 clonal cells expressing hGCGR, 0.1% bovine casein, without or with 1.0% human serum albumin; assay type: cell-based; details: geometric mean
T2 construct: expressed in transfected cells
T2 sequence (P47871 26-477): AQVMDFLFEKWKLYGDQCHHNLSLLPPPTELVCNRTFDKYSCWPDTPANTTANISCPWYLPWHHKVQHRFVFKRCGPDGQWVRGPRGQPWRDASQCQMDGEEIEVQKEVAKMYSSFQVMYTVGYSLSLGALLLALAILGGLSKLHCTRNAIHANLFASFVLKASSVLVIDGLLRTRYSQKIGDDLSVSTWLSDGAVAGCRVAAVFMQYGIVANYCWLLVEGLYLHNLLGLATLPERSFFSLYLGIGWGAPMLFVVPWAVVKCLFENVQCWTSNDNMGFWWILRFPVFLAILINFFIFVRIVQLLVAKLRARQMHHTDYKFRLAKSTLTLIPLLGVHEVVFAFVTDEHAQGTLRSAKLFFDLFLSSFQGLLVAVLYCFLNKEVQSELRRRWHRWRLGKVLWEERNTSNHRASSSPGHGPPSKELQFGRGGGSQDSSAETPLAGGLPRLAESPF
Procedure, shortened: (§1)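 Cells were stimulated with peptide for 30 min at 37° C, then intracellular cAMP was measured by competitive HTRF (665/620 nm ratio) and converted to nM using a cAMP standard curve. Relative EC50 and Emax came from four-parameter logistic fits of percent maximal response against peptide concentration.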

hGIPR = target: T3, hGIPR (Homo sapiens, UniProt P48546); assay: Functional cAMP formation (HTRF) in HEK-293 clonal cells expressing hGIPR, 0.1% bovine casein, without or with 1.0% human serum albumin; assay type: cell-based; details: for Emax: percent of maximal response to GIP(1-42)NH2; for EC50: cAMP, incubated at 37° C., 0.1% bovine casein (no human serum albumin), geometric mean
T3 construct: expressed in transfected cells
T3 sequence (P48546 22-466): T1 sequence (looked up)
Procedure, shortened: as §1

hGLP-1R = hGLP-1R (Homo sapiens, UniProt P43220); assay: Functional cAMP formation (HTRF) in HEK-293 clonal cells expressing hGLP-1R, 0.1% bovine casein, without or with 1.0% human serum albumin; assay type: cell-based; parameters: expressed in transfected cells; details: for EC50: geometric mean
Sequence of hGLP-1R (P43220 24-463): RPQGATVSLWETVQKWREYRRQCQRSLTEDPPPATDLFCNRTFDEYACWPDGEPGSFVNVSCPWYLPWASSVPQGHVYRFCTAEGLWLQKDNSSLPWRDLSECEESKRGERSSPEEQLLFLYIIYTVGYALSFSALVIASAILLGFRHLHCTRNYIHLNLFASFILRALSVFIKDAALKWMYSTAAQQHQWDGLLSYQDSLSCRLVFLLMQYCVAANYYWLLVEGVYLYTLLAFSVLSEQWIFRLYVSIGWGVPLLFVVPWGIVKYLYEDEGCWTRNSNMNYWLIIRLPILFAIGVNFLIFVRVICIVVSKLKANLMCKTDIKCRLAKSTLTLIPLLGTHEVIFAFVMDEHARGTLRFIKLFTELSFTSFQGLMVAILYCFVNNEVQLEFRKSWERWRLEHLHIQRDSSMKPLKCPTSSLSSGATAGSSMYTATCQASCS
Procedure, shortened: as §1

Emax, cAMP [1]: 100%
cAMP EC50 (1.0% HSA) [1]: 0.597 nM
cAMP Emax (1.0% HSA) [1]: 98%
Molecule: hGIP(1-42)NH2 (from UniProt P09681 52-93) (ligand)

Molecule: CC[C@H](C)[C@H](NC(=O)[C@H](CC(C)C)NC(=O)[C@](C)(Cc1ccc(O)cc1)NC(=O)[C@@H](CCC(=O)O)NC(=O)[C@@H](NC(=O)[C@H](Cc1ccccc1)NC(=O)[C@H](CCC(=O)O)NC(=O)C(C)(C)NC(=O)[C@H](CCC(N)=O)NC(=O)[C@H](C)NC(=O)[C@H](CCCCNC(=O)COCCOCCNC(=O)COCCOCCNC(=O)CC[C@H](NC(=O)CCCCCCCCCCCCC(=O)O)C(=O)O)NC(=O)[C@H](CCCN)NC(=O)[C@H](CC(=O)O)NC(=O)[C@H](CC(C)C)NC(=O)[C@](C)(CC(C)C)NC(=O)[C@@H](NC(=O)C(C)(C)NC(=O)[C@H](Cc1ccc(O)cc1)NC(=O)[C@H](CC(=O)O)NC(=O)[C@H](CO)NC(=O)[C@@H](NC(=O)[C@](C)(Cc1ccccc1F)NC(=O)[C@@H](NC(=O)CNC(=O)[C@H](CCC(=O)O)NC(=O)C(C)(C)NC(=O)[C@@H](N)Cc1ccc(O)cc1)[C@@H](C)O)[C@@H](C)O)[C@@H](C)CC)[C@@H](C)CC)C(=O)N[C@@H](CCC(=O)O)C(=O)NCC(=O)NCC(=O)N1CCC[C@H]1C(=O)N[C@@H](CO)C(=O)N[C@@H](CO)C(=O)NCC(=O)N[C@@H](C)C(=O)N1CCC[C@H]1C(=O)N1CCC[C@H]1C(=O)N1CCC[C@H]1C(=O)N[C@@H](CO)C(=O)N[C@@H](CCCCNC(=O)COCCOCCNC(=O)COCCOCCNC(=O)CC[C@H](NC(=O)CCCCCCCCCCCCC(=O)O)C(=O)O)C(N)=O [Example 232]
EC50 (hGCGR; 0.1% bovine casein and 1.0% human serum albumin, 37° C., read-out: hGCGR EC50, nM (SEM, n)): > 9950 nM
EC50 (hGCGR; cAMP, incubated at 37° C., 0.1% bovine casein (no human serum albumin), read-out: hGCGR EC50, nM (SEM, n)): > 9950 nM
Emax (hGIPR; HEK293, 0.1% bovine casein and 1.0% human serum albumin, 37° C., read-out: hGIPR Emax, % ± SEM): 91.5%
EC50 (hGIPR; read-out: hGIPR EC50, nM (SEM, n)): 0.0192 nM
Emax (hGLP-1R; HEK293, 0.1% bovine casein and 1.0% human serum albumin, 37° C., percent of maximal response to GLP-1(7-36)NH2, read-out: hGLP-1R Emax, % ± SEM): 95.4%
EC50 (hGLP-1R; cAMP, incubated at 37° C., 0.1% bovine casein (no human serum albumin), read-out: hGLP-1R EC50, nM (SEM, n)): 0.565 nM

Molecule: CC[C@H](C)[C@H](NC(=O)[C@H](CC(C)C)NC(=O)[C@](C)(Cc1ccc(O)cc1)NC(=O)[C@@H](CCC(=O)O)NC(=O)[C@@H](NC(=O)[C@H](Cc1ccccc1)NC(=O)[C@H](CCC(=O)O)NC(=O)C(C)(C)NC(=O)[C@H](CCC(N)=O)NC(=O)[C@H](C)NC(=O)[C@H](CCCCNC(=O)COCCOCCNC(=O)COCCOCCNC(=O)CC[C@H](NC(=O)CCCCCCCCCOc1ccc(C(=O)O)cc1)C(=O)O)NC(=O)[C@H](CCCN)NC(=O)[C@H](CC(=O)O)NC(=O)[C@H](CC(C)C)NC(=O)[C@](C)(CC(C)C)NC(=O)[C@@H](NC(=O)C(C)(C)NC(=O)[C@H](Cc1ccc(O)cc1)NC(=O)[C@H](CC(=O)O)NC(=O)[C@H](CO)NC(=O)[C@@H](NC(=O)[C@](C)(Cc1ccccc1F)NC(=O)[C@@H](NC(=O)CNC(=O)[C@H](CCC(=O)O)NC(=O)C(C)(C)NC(=O)[C@@H](N)Cc1ccc(O)cc1)[C@@H](C)O)[C@@H](C)O)[C@@H](C)CC)[C@@H](C)CC)C(=O)N[C@@H](CCC(=O)O)C(=O)NCC(=O)NCC(=O)N1CCC[C@H]1C(=O)N[C@@H](CO)C(=O)N[C@@H](CO)C(=O)NCC(=O)N[C@@H](C)C(=O)N1CCC[C@H]1C(=O)N1CCC[C@H]1C(=O)N1CCC[C@H]1C(=O)N[C@@H](CO)C(=O)N[C@@H](CCCCNC(=O)COCCOCCNC(=O)COCCOCCNC(=O)CC[C@H](NC(=O)CCCCCCCCCOc1ccc(C(=O)O)cc1)C(=O)O)C(N)=O [Example 238]
EC50 (hGCGR; hGCGR EC50, nM (SEM, n), 0.1% bovine casein and 1.0% human serum albumin, 37° C.): > 9950 nM
EC50 (hGCGR; hGCGR EC50, nM (SEM, n), cAMP, incubated at 37° C., 0.1% bovine casein (no human serum albumin)): > 9950 nM
Emax (hGIPR; HEK293, read-out: hGIPR Emax, % ± SEM, 0.1% bovine casein and 1.0% human serum albumin, 37° C.): 90.5%
EC50 (hGIPR; hGIPR EC50, nM (SEM, n)): 0.0214 nM
EC50 (hGLP-1R; hGLP-1R EC50, nM (SEM, n), 0.1% bovine casein and 1.0% human serum albumin, 37° C.): 27.2 nM
EC50 (hGLP-1R; hGLP-1R EC50, nM (SEM, n), cAMP, incubated at 37° C., 0.1% bovine casein (no human serum albumin)): 1.03 nM
